Assay results from the NIST ThermoML archive (doi:10.1016/j.jct.2008.02.019).

Legend:
[1] = xn = mol fraction of the nth substance listed; conditions: 101 kPa, Liquid
[2] = excess molar enthalpy (molar enthalpy of mixing); xn = mol fraction of the nth substance listed; conditions: 101 kPa, Liquid, Flow calorimetry

CCCC[n+]1ccc(C)cc1.F[B-](F)(F)F [1-butyl-4-methylpyridinium tetrafluoroborate] + O
Conditions | excess molar enthalpy [kcal/mol] | mass density [kg/m3]
[1], 298.15 K, x1 = 0.0502 | – | 1060.5
[1], 298.15 K, x1 = 0.1042 | – | 1094.8
[1], 298.15 K, x1 = 0.1512 | – | 1112.7
[1], 298.15 K, x1 = 0.2006 | – | 1126.1
[1], 298.15 K, x1 = 0.2543 | – | 1136.1
[1], 298.15 K, x1 = 0.2948 | – | 1142.4
[1], 298.15 K, x1 = 0.4 | – | 1154.1
[1], 298.15 K, x1 = 0.4913 | – | 1161.5
[1], 298.15 K, x1 = 0.6014 | – | 1168.3
[1], 298.15 K, x1 = 0.7228 | – | 1173.9
[1], 298.15 K, x1 = 0.7493 | – | 1175.1
[1], 298.15 K, x1 = 0.783 | – | 1176.4
[1], 298.15 K, x1 = 0.8449 | – | 1178.7
[1], 298.15 K, x1 = 0.8731 | – | 1179.8
[1], 298.15 K, x1 = 0.9504 | – | 1182.1
[1], 318.15 K, x1 = 0.0327 | – | 1033
[1], 318.15 K, x1 = 0.0994 | – | 1080
[1], 318.15 K, x1 = 0.1505 | – | 1098.7
[1], 318.15 K, x1 = 0.1989 | – | 1111.3
[1], 318.15 K, x1 = 0.236 | – | 1118.6
[1], 318.15 K, x1 = 0.2921 | – | 1127.6
[1], 318.15 K, x1 = 0.3237 | – | 1131.9
[1], 318.15 K, x1 = 0.4169 | – | 1141.3
[1], 318.15 K, x1 = 0.4841 | – | 1146.6
[1], 318.15 K, x1 = 0.6083 | – | 1154.2
[1], 318.15 K, x1 = 0.6715 | – | 1157.5
[1], 318.15 K, x1 = 0.7125 | – | 1159.2
[1], 318.15 K, x1 = 0.7299 | – | 1160
[1], 318.15 K, x1 = 0.8124 | – | 1163
[1], 318.15 K, x1 = 0.8565 | – | 1164.7
[1], 318.15 K, x1 = 0.8888 | – | 1165.8
[2], 298.15 K, x1 = 0.0072 | 0.0249 | –
[2], 298.15 K, x1 = 0.0145 | 0.0473 | –
[2], 298.15 K, x1 = 0.0215 | 0.0679 | –
[2], 298.15 K, x1 = 0.0303 | 0.0908 | –
[2], 298.15 K, x1 = 0.0406 | 0.117 | –
[2], 298.15 K, x1 = 0.0526 | 0.147 | –
[2], 298.15 K, x1 = 0.0659 | 0.177 | –
[2], 298.15 K, x1 = 0.0805 | 0.209 | –
[2], 298.15 K, x1 = 0.0963 | 0.243 | –
[2], 298.15 K, x1 = 0.1144 | 0.278 | –
[2], 298.15 K, x1 = 0.1563 | 0.349 | –
[2], 298.15 K, x1 = 0.1863 | 0.38 | –
[2], 298.15 K, x1 = 0.2196 | 0.407 | –
[2], 298.15 K, x1 = 0.2577 | 0.424 | –
[2], 298.15 K, x1 = 0.2972 | 0.433 | –
[2], 298.15 K, x1 = 0.3449 | 0.433 | –
[2], 298.15 K, x1 = 0.3974 | 0.42 | –
[2], 298.15 K, x1 = 0.4857 | 0.379 | –
[2], 298.15 K, x1 = 0.5954 | 0.32 | –
[2], 298.15 K, x1 = 0.7282 | 0.23 | –
[2], 298.15 K, x1 = 0.8706 | 0.116 | –
[2], 318.15 K, x1 = 0.0097 | 0.0449 | –
[2], 318.16 K, x1 = 0.0226 | 0.0937 | –
[2], 318.17 K, x1 = 0.0382 | 0.145 | –
[2], 318.18 K, x1 = 0.0565 | 0.197 | –
[2], 318.19 K, x1 = 0.0755 | 0.249 | –
[2], 318.2 K, x1 = 0.0949 | 0.293 | –
[2], 318.21 K, x1 = 0.1132 | 0.336 | –
[2], 318.22 K, x1 = 0.1187 | 0.36 | –
[2], 318.23 K, x1 = 0.1414 | 0.402 | –
[2], 318.24 K, x1 = 0.1695 | 0.44 | –
[2], 318.25 K, x1 = 0.2008 | 0.471 | –
[2], 318.26 K, x1 = 0.2346 | 0.499 | –
[2], 318.27 K, x1 = 0.2746 | 0.524 | –
[2], 318.28 K, x1 = 0.3253 | 0.537 | –
[2], 318.29 K, x1 = 0.383 | 0.533 | –
[2], 318.3 K, x1 = 0.441 | 0.517 | –
[2], 318.31 K, x1 = 0.5071 | 0.484 | –
[2], 318.32 K, x1 = 0.5961 | 0.42 | –
[2], 318.33 K, x1 = 0.6778 | 0.34 | –
[2], 318.34 K, x1 = 0.7866 | 0.236 | –
[2], 318.35 K, x1 = 0.9058 | 0.102 | –

CCCC[n+]1ccc(C)cc1.F[B-](F)(F)F [1-butyl-4-methylpyridinium tetrafluoroborate] + CO
Conditions | excess molar enthalpy [kcal/mol] | mass density [kg/m3]
[1], 298.15 K, x1 = 0.0539 | – | 880.6
[1], 298.15 K, x1 = 0.0819 | – | 916.2
[1], 298.15 K, x1 = 0.095 | – | 931.5
[1], 298.15 K, x1 = 0.1078 | – | 944.4
[1], 298.15 K, x1 = 0.1549 | – | 984.7
[1], 298.15 K, x1 = 0.2038 | – | 1017.3
[1], 298.15 K, x1 = 0.3016 | – | 1064.3
[1], 298.15 K, x1 = 0.3729 | – | 1088.5
[1], 298.15 K, x1 = 0.4548 | – | 1110.8
[1], 298.15 K, x1 = 0.5027 | – | 1120.9
[1], 298.15 K, x1 = 0.5533 | – | 1131.2
[1], 298.15 K, x1 = 0.6076 | – | 1140.4
[1], 298.15 K, x1 = 0.7174 | – | 1155.8
[1], 298.15 K, x1 = 0.8053 | – | 1165.6
[1], 298.15 K, x1 = 0.9129 | – | 1176
[1], 318.15 K, x1 = 0.0489 | – | 855.9
[1], 318.15 K, x1 = 0.096 | – | 915.9
[1], 318.15 K, x1 = 0.1439 | – | 961.3
[1], 318.15 K, x1 = 0.1894 | – | 994.2
[1], 318.15 K, x1 = 0.3003 | – | 1049.4
[1], 318.15 K, x1 = 0.3551 | – | 1068.5
[1], 318.15 K, x1 = 0.4349 | – | 1091.7
[1], 318.15 K, x1 = 0.4888 | – | 1103.9
[1], 318.15 K, x1 = 0.5342 | – | 1112.7
[1], 318.15 K, x1 = 0.5959 | – | 1123.9
[1], 318.15 K, x1 = 0.6592 | – | 1133.5
[1], 318.15 K, x1 = 0.7266 | – | 1142.3
[1], 318.15 K, x1 = 0.8378 | – | 1154.8
[1], 318.15 K, x1 = 0.9046 | – | 1161.4
[2], 298.15 K, x1 = 0.0155 | 0.0607 | –
[2], 298.15 K, x1 = 0.0359 | 0.116 | –
[2], 298.15 K, x1 = 0.0582 | 0.159 | –
[2], 298.15 K, x1 = 0.0832 | 0.217 | –
[2], 298.15 K, x1 = 0.1111 | 0.27 | –
[2], 298.15 K, x1 = 0.1397 | 0.329 | –
[2], 298.15 K, x1 = 0.1698 | 0.377 | –
[2], 298.15 K, x1 = 0.1711 | 0.392 | –
[2], 298.15 K, x1 = 0.1953 | 0.415 | –
[2], 298.15 K, x1 = 0.2214 | 0.435 | –
[2], 298.15 K, x1 = 0.2412 | 0.453 | –
[2], 298.15 K, x1 = 0.2755 | 0.469 | –
[2], 298.15 K, x1 = 0.3109 | 0.48 | –
[2], 298.15 K, x1 = 0.3617 | 0.475 | –
[2], 298.15 K, x1 = 0.427 | 0.453 | –
[2], 298.15 K, x1 = 0.507 | 0.411 | –
[2], 298.15 K, x1 = 0.6029 | 0.35 | –
[2], 298.15 K, x1 = 0.7161 | 0.272 | –
[2], 298.15 K, x1 = 0.8469 | 0.154 | –
[2], 318.2 K, x1 = 0.0102 | 0.0337 | –
[2], 318.21 K, x1 = 0.0238 | 0.0662 | –
[2], 318.22 K, x1 = 0.0405 | 0.098 | –
[2], 318.23 K, x1 = 0.0635 | 0.178 | –
[2], 318.24 K, x1 = 0.0898 | 0.261 | –
[2], 318.25 K, x1 = 0.1174 | 0.336 | –
[2], 318.26 K, x1 = 0.1476 | 0.403 | –
[2], 318.27 K, x1 = 0.1778 | 0.457 | –
[2], 318.28 K, x1 = 0.1969 | 0.498 | –
[2], 318.29 K, x1 = 0.2103 | 0.529 | –
[2], 318.3 K, x1 = 0.2392 | 0.559 | –
[2], 318.31 K, x1 = 0.2699 | 0.579 | –
[2], 318.32 K, x1 = 0.3021 | 0.603 | –
[2], 318.33 K, x1 = 0.3442 | 0.61 | –
[2], 318.34 K, x1 = 0.3846 | 0.619 | –
[2], 318.35 K, x1 = 0.4397 | 0.614 | –
[2], 318.36 K, x1 = 0.4968 | 0.595 | –
[2], 318.37 K, x1 = 0.5563 | 0.57 | –
[2], 318.38 K, x1 = 0.6281 | 0.533 | –
[2], 318.39 K, x1 = 0.7109 | 0.466 | –
[2], 318.4 K, x1 = 0.8042 | 0.362 | –
[2], 318.41 K, x1 = 0.8793 | 0.239 | –
[2], 318.42 K, x1 = 0.9607 | 0.0937 | –
